# Target: T1, HIV-1 protease (Human immunodeficiency virus type 1 group M subtype B, UniProt P04585)
# T1 construct: made in house; host or cells: E. coli BL21 (dE3)pLysS, pET30a vector
# Assay: HIV-1 Protease Inhibition Assay
# Format: biochemical
# Settings: cells marked (pM) in a column headed nM
# Excerpt: Assays of the dose-response effect of inhibitor compounds can be described as a curve expressing a degree of inhibition as a function of concentration. The curve theoretically passes through a point at which the concentration is sufficient to reduce activity of the HIV protease enzyme to a level that is 50% that of the difference between minimal and maximal enzyme activity in the assay.
# HIV-1 Protease Inhibition Assay
# The HIV-1 protease gene was subcloned into the pET30a vector (Novagen) and then transformed into BL21 (dE3)pLysS cells for protein expression. Protein expression and purification were followed according to Tang's procedure (Hong et al., Biochemistry, 1996, 35, 10627-10633). […] The inclusion body containing some bacterial proteins was thoroughly washed by using TRITON X-100, solubilized in […] and passed through the Q-sepharose column to remove the bacterial proteins which interfered with subsequent refolding steps. HIV-1 protease was refolded from the urea to an active form by dialysis. As a final step, gel filtration chromatography was used to remove impurities after refolding. Activities of purified HIV-1 protease were examined using a fluorogenic substrate, 2-aminobenzoyl-Thr-Ile-Nle-Phe(pNO2)-Gln-Arg-NH2 (Novabiochem). […] In the condition of So<<Km, v=Eo(kcat/Km)So, where Eo is the total enzyme concentration, and So is the substrate concentrate. […] Assays are carried out as described by Toth and Marshall (Toth et al., Int. J. Pept. Protein Res., 1990, 36, 544-50).
row,SMILES,IC50 [pM]
1,COc1ccc(S(=O)(=O)N(C[C@@H]2CCC(=O)N2)C[C@@H](O)[C@H](Cc2ccccc2)NC(=O)OC2CO[C@H]3OCC[C@@H]23)cc1 (some centres unmarked) [Compound 283],14
2,Nc1ccc(S(=O)(=O)N(C[C@H]2CCC(=O)N2)C[C@@H](O)[C@H](Cc2ccccc2)NC(=O)OC2CO[C@H]3OCC[C@@H]23)cc1 (some centres unmarked) [Compound 276],20
3,Nc1ccc(S(=O)(=O)N(C[C@H]2CCC(=O)N2)C[C@@H](O)[C@H](Cc2ccccc2)NC(=O)OC2CC[C@H]3OCC[C@@H]23)cc1 (some centres unmarked) [Compound 281],26

# Same assay, conditions: fluorogenic substrate assay
SMILES,IC50 [pM],Ki [nM]
CC(C)CN(C[C@@H](O)[C@H](Cc1ccccc1)NC(=O)OC1CO[C@H]2OCCC12)S(=O)(=O)c1cncc([N+](=O)[O-])c1 (some centres unmarked) [Compound 165],3500,1
C=CCCCCN(C[C@@H](O)[C@H](Cc1ccccc1)NC(=O)O[C@@H]1CC2CCO[C@@H]2C1)S(=O)(=O)c1cccc(C(O)CC=C)c1 (some centres unmarked) [Compound 237],10000,3.1
CC(C)CN(C[C@@H](O)[C@H](Cc1ccccc1)NC(=O)OC1CC2CCO[C@@H]2C1)S(=O)(=O)c1cccc(C=NO)c1 (some centres unmarked) [Compound 129],2900,0.9
CC(C)CN(C[C@@H](O)[C@H](Cc1ccccc1)NC(=O)O[C@H]1CCOC1)S(=O)(=O)c1ccc(F)c([N+](=O)[O-])c1 [Compound 181],145000,45
C=CCCCCN(C[C@@H](O)[C@H](Cc1ccccc1)NC(=O)O[C@@H]1CC2CCO[C@@H]2C1)S(=O)(=O)c1cccc(OCC=C)c1 (some centres unmarked) [Compound 225f],11000,3.4
CC(C)(C)NC(=O)[C@@H]1C[C@@H]2CCCC[C@@H]2CN1C[C@@H](O)[C@H](Cc1ccccc1)NC(=O)OC1CC[C@@]2(CCCO2)C1 (some centres unmarked) [Compound 145b],> 2e+06,–
CC(C)CN(C[C@@H](O)[C@H](Cc1ccccc1)NC(=O)OC1CO[C@H]2OCCC12)S(=O)(=O)c1ccc(/C=C/CO)cc1 (some centres unmarked) [Compound 121],3000,–
COc1ccc(S(=O)(=O)N(C[C@@H](O)[C@H](Cc2ccccc2)NC(=O)O[C@H]2CO[C@H]3OCCC32)C2CN(C(=O)OC(C)(C)C)C2)cc1 (some centres unmarked) [Compound 200],7600,2.3
O=C(N[C@@H](Cc1ccccc1)[C@H](O)CN1CCCCCCCOc2cccc(c2)S1(=O)=O)O[C@H]1CO[C@H]2OCCC21 (some centres unmarked) [Compound 231],8600,2.7
CC(C)CN(C[C@@H](O)[C@H](Cc1ccccc1)NC(=O)OC1CC2CCO[C@@H]2C1)S(=O)(=O)c1cc(O)cc(O)c1 (some centres unmarked) [Compound 100],247000,77
"CC(C)(C)NC(=O)[C@@H]1C[C@@H]2CCCC[C@@H]2CN1C[C@@H](O)[C@H](Cc1ccccc1)NC(=O)OC1CCCC12CCCO2 (single isomer, unassigned) [Compound 144]",40000,–
O=C(N[C@@H](Cc1ccccc1)[C@H](O)CN1CCCCCCCC(O)c2cccc(c2)S1(=O)=O)O[C@@H]1CC2CCO[C@@H]2C1 (some centres unmarked) [Compound 238],4000,1.2
Cc1ccc(S(=O)(=O)N(CC(C)C)C[C@@H](O)[C@H](Cc2ccccc2)NC(=O)OC2CO[C@H]3OCCC23)cc1CO (some centres unmarked) [Compound 156],3100,0.97
O=C(N[C@@H](Cc1ccccc1)[C@H](O)CN1CCCC/C=C\COc2cccc(c2)S1(=O)=O)O[C@@H]1CC2CCO[C@@H]2C1 (some centres unmarked) [Compound 225g],10000,3.1
Cc1ccc(S(=O)(=O)N(CC(C)C)C[C@@H](O)[C@H](CC2CCN(Cc3ccccc3)CC2)NC(=O)O[C@H]2CCOC2)cc1 [Compound 150],540000,–
C=CCCCCN(C[C@@H](O)[C@H](Cc1ccccc1)NC(=O)O[C@H]1CO[C@H]2OCCC21)S(=O)(=O)c1cccc(OCCC=C)c1 (some centres unmarked) [Compound 232],5400,1.7
CC(C)CN(C[C@@H](O)[C@H](Cc1ccccc1)NC(=O)OC1CC2CCO[C@@H]2C1)C(=O)c1cc(O)cc(O)c1 (some centres unmarked) [Compound 134],3e+06,931
CC(C)CN(C[C@@H](O)[C@H](Cc1ccccc1)NC(=O)OC1CO[C@H]2OCCC12)S(=O)(=O)c1cccc(CO)c1 (some centres unmarked) [Compound 114],1100,–
CC(C)CN(C[C@@H](O)[C@H](Cc1ccccc1)NC(=O)OC(C)(C)C)S(=O)(=O)c1cncc([N+](=O)[O-])c1 [Compound 163],115000,36
O=C(N[C@@H](Cc1ccccc1)[C@H](O)CN(CCN1CCOCC1)S(=O)(=O)c1ccc(Cl)c(O)c1)OC1CC2CCO[C@@H]2C1 (some centres unmarked) [Compound 155],16000,4.9
CC(C)CN(C[C@@H](O)[C@H](Cc1ccccc1)NC(=O)OC1CC2CCO[C@@H]2C1)S(=O)(=O)c1cccc(O)c1 (some centres unmarked) [Compound 79],5500,1.7
CC(C)CN(C[C@@H](O)[C@H](Cc1ccccc1)NC(=O)OC1CC2CCO[C@@H]2C1)S(=O)(=O)c1ccc(C=NO)cc1 (some centres unmarked) [Compound 128],1700,0.53

SMILES,IC50 [pM],Ki [nM]
CC(C)CN(C[C@@H](O)[C@H](Cc1ccccc1)NC(=O)OC1CC2CCO[C@@H]2C1)S(=O)(=O)c1ccc(Cl)c(O)c1 (some centres unmarked) [Compound 152],5200,1.8
CC(C)CN(C[C@@H](O)[C@H](Cc1ccccc1)NC(=O)OC1CO[C@H]2OCCC12)S(=O)(=O)c1ccc(Cl)c(O)c1 (some centres unmarked) [Compound 151],3100,1
O=C1CC[C@H](CN(C[C@@H](O)[C@H](Cc2ccccc2)NC(=O)OC2CO[C@H]3OCC[C@@H]23)S(=O)(=O)c2ccc([N+](=O)[O-])cc2)N1 (some centres unmarked) [Compound 274],100,–
CN(C)CCN(C[C@@H](O)[C@H](Cc1ccccc1)NC(=O)OC1CC2CCO[C@@H]2C1)S(=O)(=O)c1ccc(F)c(N)c1 (some centres unmarked) [Compound 180],1.5e+06,472
CC(C)CN(C[C@@H](O)[C@H](Cc1ccccc1)NC(=O)OC1CC2CCO[C@@H]2C1)S(=O)(=O)c1ccc(OC2CCCCO2)c(OC2CCCCO2)c1 (some centres unmarked) [Compound 87],30000,9.3
CC(C)CN(C[C@@H](O)[C@H](Cc1ccccc1)NC(=O)O[C@@H]1CC2CCO[C@@H]2C1)S(=O)(=O)c1ccc(/C=N/O)cc1 (some centres unmarked) [Compound 256],1700,–
COc1ccc(S(=O)(=O)N(C[C@@H](O)[C@H](Cc2ccccc2)NC(=O)O[C@H]2CCOC2)C2CN(C)C2)cc1 [Compound 206],109000,34
CC(C)CN(C[C@@H](O)[C@H](Cc1ccccc1)NC(=O)OC1CC2CCO[C@@H]2C1)S(=O)(=O)c1cncc([N+](=O)[O-])c1 (some centres unmarked) [Compound 167],4500,1.4
COc1ccc(S(=O)(=O)N(CC(C)C)C[C@@H](O)[C@H](Cc2ccccc2)NC(=O)OC2CC[C@@]3(CCCO3)C2)cc1 (some centres unmarked) [Compound 145c],15000,–
CC(C)CN(C[C@@H](O)[C@H](Cc1ccccc1)NC(=O)OC1CC2CCO[C@@H]2C1)S(=O)(=O)c1cncc(N)c1 (some centres unmarked) [Compound 168],2500,0.8
COc1ccc(S(=O)(=O)NN(CC(C)C)C[C@@H](O)[C@H](Cc2ccccc2)NC(=O)O[C@@H]2CC3CCO[C@@H]3C2)cc1 (some centres unmarked) [Compound 186],10000,3.2
COc1ccc(S(=O)(=O)N(CC(C)C)C[C@@H](O)C(Cc2ccccc2)NC(=O)O[C@H]2CO[C@@H]3OCCC[C@@H]32)cc1 (some centres unmarked) [Compound 253],1000,–
COc1ccc(S(=O)(=O)NN(CC(C)C)C[C@@H](O)[C@H](Cc2ccccc2)NC(=O)O[C@H]2CO[C@H]3OCCC32)cc1 (some centres unmarked) [Compound 185],312000,97
COc1ccc(S(=O)(=O)N(CC(=O)[C@H](Cc2ccc(OCc3ccccc3)cc2)NC(=O)OC(C)(C)C)CC(C)C)cc1 [Compound 208],> 2.3e+06,–
CC(C)CN(C[C@@H](O)[C@H](Cc1ccccc1)NC(=O)O[C@@H]1CCOC1)[C@H]1CCNC1=O [Compound 248],–,730
CC(C)CN(C[C@@H](O)[C@H](Cc1ccccc1)NC(=O)OC1CC2CCO[C@@H]2C1)S(=O)(=O)c1ccc(F)c(N)c1 (some centres unmarked) [Compound 179],6400,2
COc1ccc(S(=O)(=O)N(CC(C)C)C[C@H](O)[C@H](Cc2ccc(OCc3ccccc3)cc2)NC(=O)OC(C)(C)C)cc1 [Compound 209],30000,9.3
CC(C)CN(C[C@@H](O)[C@H](Cc1ccccc1)NC(=O)O[C@H]1CCOC1)S(=O)(=O)c1cncc(N)c1 [Compound 170],2400,0.74
"CC(C)(C)NC(=O)[C@@H]1C[C@@H]2CCCC[C@@H]2CN1C[C@@H](O)[C@H](Cc1ccccc1)NC(=O)OC1CCCC12CCCO2 (single isomer, unassigned) [Compound 145]",96000,–
Cc1ccc(S(=O)(=O)N(CC(C)C)C[C@@H](O)[C@H](Cc2ccccc2)NC(=O)OC2CC3CCO[C@@H]3C2)cc1 (some centres unmarked) [Compound 131],1400,–
CC(C)CN(C[C@@H](O)[C@H](Cc1ccccc1)NC(=O)OC1CO[C@H]2OCCC12)S(=O)(=O)c1ccc(CN)cc1 (some centres unmarked) [Compound 118],2700,0.9
CC(C)CN(C[C@@H](O)[C@H](Cc1ccccc1)NC(=O)OC(C)(C)C)S(=O)(=O)c1ccc(CN2CCN(C)CC2)cc1 [Compound 137],2.1e+06,–

# Source: patent US20070082883A1, “HIV protease inhibitors” (THE BOARD OF TRUSTEES OF THE UNIVERSITY OF ILLINOIS, priority 2002, published 2007)
